Assay results from PubChem BioAssay (NCI).
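In this assay, cells in 96-well plates receive the compound at five concentrations for 48 hours. Endpoints are linearly interpolated between the surrounding concentrations. Definition used: TGI = concentration required for complete inhibition of growth.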

Tests used:
Test in all cases: inhibition of tumour cell growth, NCI panel, 48 h
[1] = test system: ACHN renal
[2] = test system: EKVX NSCLC
[3] = test system: MALME-3M melanoma
[4] = test system: SNB-19 CNS
[5] = test system: M14 melanoma
[6] = test system: 786-0 renal
[7] = test system: NCI-H23 lung
[8] = test system: CCRF-CEM leukemia
[9] = test system: SF-295 CNS
[10] = test system: UO-31 renal
[11] = test system: HCT-15 colon
[12] = test system: OVCAR-3 ovarian
[13] = test system: OVCAR-8 ovarian
[14] = test system: MDA-MB-231 breast
[15] = test system: MDA-N
[16] = test system: U251 CNS
[17] = test system: COLO 205 colon
[18] = test system: RPMI-8226 leukemia
[19] = test system: TK-10 renal
[20] = test system: BT-549 breast
[21] = test system: HS 578T breast
[22] = test system: NCI-H522 lung
[23] = test system: SNB-75 CNS
[24] = test system: SK-MEL-2 melanoma
[25] = test system: HL-60(TB) leukemia
[26] = test system: MDA-MB-435
[27] = test system: NCI/ADR-RES ovarian
[28] = test system: KM12 colon
[29] = test system: HCT-116 colon
[30] = test system: A549 NSCLC
[31] = test system: SF-539 CNS
[32] = test system: SK-MEL-28 melanoma
[33] = test system: LOX IMVI melanoma
[34] = test system: SN12C renal
[35] = test system: OVCAR-4 ovarian
[36] = test system: HOP-92 NSCLC
[37] = test system: HT29 colon
[38] = test system: RXF 393 renal
[39] = test system: SK-MEL-5 melanoma
[40] = test system: UACC-257 melanoma
[41] = test system: K-562 leukemia
[42] = test system: NCI-H460 lung
[43] = test system: SK-OV-3 ovarian
[44] = test system: OVCAR-5 ovarian
[45] = test system: CAKI-1 renal
[46] = test system: T-47D breast
[47] = test system: UACC-62 melanoma
[48] = test system: NCI-H226 lung
[49] = test system: MCF7 breast
[50] = test system: MOLT-4 leukemia
[51] = test system: DU-145 prostate
[52] = test system: SR leukemia
[53] = test system: PC-3 prostate
[54] = test system: IGROV1 ovarian
[55] = test system: HCC-2998 colon
[56] = test system: A498 renal
[57] = test system: HOP-62 NSCLC
[58] = test system: SF-268 CNS
[59] = test system: SW-620 colon

`COC(=O)[C@@]12OC[C@]34[C@H]([C@@H](O)[C@@H]1O)[C@@]1(C)CC(=O)C(OC(C)=O)=C(C)[C@@H]1C[C@H]3OC(=O)[C@H](OC(=O)C=C(C)C)[C@@H]24` showed a TGI [1] of 10.8 µM, a TGI [2] of 5.38 µM and a TGI [3] of 1.2 µM. For the same compound, the TGI [4] was 77.8 µM, the TGI [5] was 2.63 µM and the TGI [6] was 3.19 µM. The TGI [7] was 2.2 µM, the TGI [8] was 3.83 µM and the TGI [9] was 3 µM. It also gave a TGI [10] of 14.5 µM, a TGI [11] of 7.46 µM and a TGI [12] of 1.01 µM. It also gave a TGI [13] of 2.54 µM, a TGI [14] of 5.8 µM and a TGI [15] of 3.2 µM. It also gave a TGI [16] of 3.26 µM, a TGI [17] of 2.79 µM and a TGI [18] of 3.21 µM. For the same compound, the TGI [19] was 4.75 µM, the TGI [20] was 5.27 µM and the TGI [21] was 3.32 µM. It also gave a TGI [22] of 1.49 µM, a TGI [23] of 4.45 µM and a TGI [24] of 2.79 µM. The TGI [25] was 1.65 µM, the TGI [26] was 3.45 µM and the TGI [27] was 57.4 µM. The TGI [28] was 4.18 µM, the TGI [29] was 2 µM and the TGI [30] was 4.92 µM. For the same compound, the TGI [31] was 1.82 µM, the TGI [32] was 2.67 µM and the TGI [33] was 0.981 µM. It also gave a TGI [34] of 4.52 µM, a TGI [35] of 4.05 µM and a TGI [36] of 4.04 µM. For the same compound, the TGI [37] was 58.3 µM, the TGI [38] was 3.41 µM and the TGI [39] was 1.33 µM. It also gave a TGI [40] of 2.28 µM, a TGI [41] of 9.7 µM and a TGI [42] of 1.38 µM. For the same compound, the TGI [43] was 1.78 µM, the TGI [44] was 6.79 µM and the TGI [45] was 10.8 µM. It also gave a TGI [46] of 5.93 µM, a TGI [47] of 3.16 µM and a TGI [48] of 3.94 µM. The TGI [49] was 2.99 µM, the TGI [50] was 4.23 µM and the TGI [51] was 6.37 µM. It also gave a TGI [52] of 2.07 µM, a TGI [53] of 4.01 µM and a TGI [54] of 2.59 µM. It also gave a TGI [55] of 0.716 µM, a TGI [56] of 1.78 µM and a TGI [57] of 2.86 µM. It also gave a TGI [58] of 3.05 µM.
`Cc1cc2c(cc1C)N1C(Cl)=C3CCCCC3=C(C#N)C1N2` (centres undefined) gave a TGI [1] of 10.5 µM, a TGI [2] of 41.2 µM and a TGI [3] of 34.6 µM. It also gave a TGI [4] of 45.3 µM, a TGI [5] of 21.2 µM and a TGI [6] of 3.61 µM. The TGI [7] was 14.2 µM, the TGI [8] was over 23.2 µM and the TGI [9] was 42.4 µM. The TGI [10] was 17.7 µM, the TGI [11] was 7.76 µM and the TGI [12] was 30.5 µM. For the same compound, the TGI [59] was 4.39 µM, the TGI [13] was 32.9 µM and the TGI [14] was 30.1 µM. The TGI [15] was 15.1 µM, the TGI [16] was 24.6 µM and the TGI [17] was 33.9 µM. For the same compound, the TGI [18] was over 100 µM, the TGI [19] was 18.6 µM and the TGI [20] was 8.46 µM. The TGI [21] was over 100 µM, the TGI [22] was 3.91 µM and the TGI [23] was 56.9 µM. It also gave a TGI [24] of 29.2 µM, a TGI [25] of over 100 µM and a TGI [26] of over 33.1 µM. The TGI [27] was 14.5 µM, the TGI [28] was 24 µM and the TGI [30] was 45.8 µM. It also gave a TGI [31] of 41.6 µM, a TGI [32] of 10.6 µM and a TGI [33] of 4.37 µM. For the same compound, the TGI [34] was 14.7 µM, the TGI [35] was 31.7 µM and the TGI [36] was over 30.4 µM. For the same compound, the TGI [37] was 6.94 µM, the TGI [38] was 29 µM and the TGI [39] was over 32.8 µM. It also gave a TGI [40] of 22.3 µM, a TGI [41] of over 100 µM and a TGI [42] of 51.8 µM. For the same compound, the TGI [43] was 39.6 µM, the TGI [44] was 36 µM and the TGI [45] was 12.3 µM. It also gave a TGI [46] of 28.3 µM, a TGI [47] of 7.63 µM and a TGI [48] of 30.5 µM. It also gave a TGI [49] of 21.6 µM, a TGI [50] of over 42.9 µM and a TGI [51] of 36.4 µM. The TGI [52] was over 100 µM, the TGI [53] was 27.3 µM and the TGI [54] was 28.3 µM. It also gave a TGI [55] of 22.4 µM, a TGI [56] of 33.8 µM and a TGI [57] of 30.1 µM. It also gave a TGI [58] of 60.4 µM.
`COc1cc2c(cc1OC)C(=O)/C(=C/c1ccccc1)CC2` was tested, and the TGI [1] was over 100 µM, the TGI [2] was over 100 µM and the TGI [3] was over 100 µM. It also gave a TGI [4] of over 100 µM, a TGI [5] of over 100 µM and a TGI [6] of over 100 µM. The TGI [7] was over 100 µM, the TGI [8] was over 100 µM and the TGI [9] was 41.1 µM. It also gave a TGI [10] of over 100 µM, a TGI [11] of 50.3 µM and a TGI [12] of over 100 µM. For the same compound, the TGI [59] was over 100 µM, the TGI [13] was over 100 µM and the TGI [14] was over 100 µM. It also gave a TGI [15] of over 100 µM, a TGI [16] of over 100 µM and a TGI [17] of 38.8 µM. The TGI [18] was over 100 µM, the TGI [19] was over 100 µM and the TGI [20] was 74.1 µM. For the same compound, the TGI [21] was over 100 µM, the TGI [22] was over 100 µM and the TGI [23] was over 100 µM. The TGI [24] was 29.8 µM, the TGI [25] was 17.2 µM and the TGI [26] was over 100 µM. For the same compound, the TGI [27] was 70 µM, the TGI [28] was 35.5 µM and the TGI [29] was over 100 µM. The TGI [30] was over 100 µM, the TGI [31] was over 100 µM and the TGI [32] was over 100 µM. For the same compound, the TGI [33] was over 100 µM, the TGI [34] was over 100 µM and the TGI [35] was over 100 µM. It also gave a TGI [36] of 67.3 µM, a TGI [37] of 46.2 µM and a TGI [38] of over 100 µM. It also gave a TGI [39] of 35.2 µM, a TGI [40] of over 100 µM and a TGI [41] of over 100 µM. The TGI [42] was over 100 µM, the TGI [43] was 97.5 µM and the TGI [44] was over 100 µM. The TGI [45] was 48.3 µM, the TGI [46] was over 100 µM and the TGI [48] was 74.6 µM. For the same compound, the TGI [49] was over 100 µM, the TGI [50] was 71.2 µM and the TGI [51] was over 100 µM. The TGI [52] was over 100 µM, the TGI [53] was over 100 µM and the TGI [54] was over 100 µM. It also gave a TGI [55] of 54.9 µM, a TGI [56] of 44.8 µM and a TGI [57] of over 100 µM. The TGI [58] was over 100 µM.
